What is called IC50 is the concentration at which inhibition is half-maximal. What is called melting point is the temperature of the solid-liquid transition.

Drawing on patent US8518945B2, “Pyrrolopyrazine kinase inhibitors” (Hoffmann-La Roche Inc., priority 2010, dated 2013), this text covers IC50 and melting point for 26 compounds.

SMILES strings stand for the structures.

The target in data set [1] is T1, h-jak3(810-1124) (JAK3: Recombinant human kinase domain) (Homo sapiens, UniProt P52333).
T1 construct: jak3(810- 1124)-sf9-c; made in house; host or cells: Sf9
Description: Determination of IC50 of Janus Kinase (JAK) inhibition: JAK3 radioactive end-point 33P-ATP kinase assay. It counts as biochemical. The settings on record: no additive; ATP 1.5 uM, peptide 50 uM, 20 minutes, room temperature; read-out: Ic50 h-jak3(810-1124)-sf9-c: no additive.

T1 sequence (P52333 810-1124): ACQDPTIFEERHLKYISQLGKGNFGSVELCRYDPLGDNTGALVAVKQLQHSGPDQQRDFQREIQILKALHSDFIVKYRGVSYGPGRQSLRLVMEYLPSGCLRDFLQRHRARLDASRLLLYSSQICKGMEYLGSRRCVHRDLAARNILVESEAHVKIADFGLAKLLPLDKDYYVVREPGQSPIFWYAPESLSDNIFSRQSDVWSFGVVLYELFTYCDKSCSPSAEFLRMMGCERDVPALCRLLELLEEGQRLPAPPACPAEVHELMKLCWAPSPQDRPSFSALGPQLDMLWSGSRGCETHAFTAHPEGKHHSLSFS

The compound `Cc1nc(-c2cnc3[nH]cc(C(=O)N[C@@H](C(=O)N4CC(C#N)C4)C4CC4)c3n2)cn1CC(F)(F)F` [Example I-165, 2-[2-Methyl-1-(2,2,2-trifluoro-ethyl)-1H-imidazol-4-yl]-5H-pyrrolo[2,3-b]pyrazine-7-carboxylic acid [(R)-2-(3-cyano-azetidin-1-yl)-1-cyclopropyl-2-oxo-ethyl]-amide] showed a melting point of 255 to 256 °C. Also, in data set [1], the IC50 was found to be 0.68 nM.

The compound `CC[C@@H](NC(=O)c1c[nH]c2ncc(C3CC3)nc12)C(=O)N1CCCC1` [Example 23, 2-Cyclopropyl-5H-pyrrolo[2,3-b]pyrazine-7-carboxylic acid [(R)-1-(pyrrolidine-1-carbonyl)-propyl]-amide] had a melting point of 240.9 to 242.5 °C.

In turn, `Cc1nc(-c2cnc3[nH]cc(C(=O)N[C@@H](C(=O)N4CC(C#N)C4)C(C)(C)C)c3n2)cn1-c1cccc(F)c1` [Example 137, 2-[1-(3-Fluorophenyl)-2-methyl-1H-imidazol-4-yl]-5H-pyrrolo[2,3-b]pyrazine-7-carboxylic acid [(R)-1-(3-cyano-azetidine-1-carbonyl)-2,2-dimethyl-propyl]-amide] registered a melting point of 171 to 176 °C.

Compound `CCn1cc(-c2cnc3[nH]cc(C(=O)N[C@@H](C(=O)N4CCCC4)C4CC4)c3n2)cn1` [Example 4, 2-(1-Ethyl-1H-pyrazol-4-yl)-5H-pyrrolo[2,3-b]pyrazine-7-carboxylic acid ((R)-1-cyclopropyl-2-oxo-2-pyrrolidin-1-yl-ethyl)-amide] came in with a melting point of 210 to 212 °C.

As for `CC(C)(C)[C@@H](NC(=O)c1c[nH]c2ncc(C3CC3)nc12)C(=O)N1CCC(C#N)CC1` [Example 11, 2-Cyclopropyl-5H-pyrrolo[2,3-b]pyrazine-7-carboxylic acid [(R)-1-(4-cyano-piperidine-1-carbonyl)-2,2-dimethyl-propyl]-amide], the melting point fell in the range of 249 to 251 °C.

`N#CC1CN(C(=O)[C@H](NC(=O)c2c[nH]c3ncc(-c4ccccc4)nc23)C2CC2)C1` [Example 147, 2-Phenyl-5H-pyrrolo[2,3-b]pyrazine-7-carboxylic acid [(R)-2-(3-cyano-azetidin-1-yl)-1-cyclopropyl-2-oxo-ethyl]-amide] had a melting point of 200 to 202 °C.

Compound `CN1CCN(c2ccc(-c3cnc4[nH]cc(C(=O)N[C@@H](C(=O)N5CC(C#N)C5)C5CC5)c4n3)cc2)CC1` [Example 144, 2-[4-(4-Methyl-piperazin-1-yl)-phenyl]-5H-pyrrolo[2,3-b]pyrazine-7-carboxylic acid [(R)-2-(3-cyano-azetidin-1-yl)-1-cyclopropyl-2-oxo-ethyl]-amide] came in with a melting point of 178 to 185 °C.

`CC(C)[C@@H](NC(=O)c1c[nH]c2ncc(C3CC3)nc12)C(=O)N1CCCC1` [Example 24, 2-Cyclopropyl-5H-pyrrolo[2,3-b]pyrazine-7-carboxylic acid [(R)-2-methyl-1-(pyrrolidine-1-carbonyl)-propyl]-amide]: the melting point lay within 171 to 172.1 °C.

In turn, `CC(C)(C)[C@@H](NC(=O)c1c[nH]c2ncc(C3CC3)nc12)C(=O)N1CCCC1` [Example 1, 2-Cyclopropyl-5H-pyrrolo[2,3-b]pyrazine-7-carboxylic acid [(R)-2,2-dimethyl-1-(pyrrolidine-1-carbonyl)-propyl]-amide] displayed a melting point of 201 to 203 °C.

Compound `CN(C)c1ccc(-c2cnc3[nH]cc(C(=O)N[C@@H](C(=O)N4CC(C#N)C4)C4CC4)c3n2)cc1` [Example 146, 2-(4-Dimethylamino-phenyl)-5H-pyrrolo[2,3-b]pyrazine-7-carboxylic acid [(R)-2-(3-cyano-azetidin-1-yl)-1-cyclopropyl-2-oxo-ethyl]-amide] displayed a melting point of 175 to 180 °C.

Compound `CCn1cc(-c2cnc3[nH]cc(C(=O)N[C@@H](C(=O)N4CCCC4)C4(C)CC4)c3n2)cn1` [Example I-34, 2-(1-Ethyl-1H-pyrazol-4-yl)-5H-pyrrolo[2,3-b]pyrazine-7-carboxylic acid [(R)-1-(1-methyl-cyclopropyl)-2-oxo-2-pyrrolidin-1-yl-ethyl]-amide] returned a melting point of 218 to 220 °C. In addition, the IC50 in data set [1] was determined as 0.87 nM.

In the case of `CC(=O)N1CCN(c2ccc(-c3cnc4[nH]cc(C(=O)N[C@@H](C(=O)N5CC(C#N)C5)C5CC5)c4n3)cc2)CC1` [Example 143, 2-[4-(4-Acetyl-piperazin-1-yl)-phenyl]-5H-pyrrolo[2,3-b]pyrazine-7-carboxylic acid [(R)-2-(3-cyano-azetidin-1-yl)-1-cyclopropyl-2-oxo-ethyl]-amide], the melting point is 185 to 188 °C.

Regarding `CC(C)[C@@H](NC(=O)c1c[nH]c2ncc(C3CC3)nc12)C(=O)N1CCCCC1` [Example 26, 2-Cyclopropyl-5H-pyrrolo[2,3-b]pyrazine-7-carboxylic acid [(R)-2-methyl-1-(piperidine-1-carbonyl)-propyl]-amide], the melting point lay within 183 to 185 °C.

Compound `CC(C)[C@@H](NC(=O)c1c[nH]c2ncc(C3CC3)nc12)C(=O)N1CCOCC1` [Example 27, 2-Cyclopropyl-5H-pyrrolo[2,3-b]pyrazine-7-carboxylic acid [(R)-2-methyl-1-(morpholine-4-carbonyl)-propyl]-amide] returned a melting point of 154 to 156 °C.

`CCn1cc(-c2cnc3[nH]cc(C(=O)N[C@@H](C(=O)N4CCC(C)(C#N)C4)C(C)(C)C)c3n2)cn1` (stereo partly drawn) [Example I-28, 2-(1-Ethyl-1H-pyrazol-4-yl)-5H-pyrrolo[2,3-b]pyrazine-7-carboxylic acid [(R)-1-(3-cyano-3-methyl-pyrrolidine-1-carbonyl)-2,2-dimethyl-propyl]-amide] yielded a melting point of 228 to 230 °C. In data set [1], the IC50 stood at 0.51 nM.

Consider `Cc1nc(-c2cnc3[nH]cc(C(=O)N[C@@H](C(=O)N4CC(C#N)C4)C(C)(C)C)c3n2)cn1-c1cc(F)cc(F)c1` [Example 136, 2-[1-(3,5-Difluoro-phenyl)-2-methyl-1H-imidazol-4-yl]-5H-pyrrolo[2,3-b]pyrazine-7-carboxylic acid [(R)-1-(3-cyano-azetidine-1-carbonyl)-2,2-dimethyl-propyl]-amide], for which the melting point fell in the range of 187 to 190 °C.

Regarding `N#CC1CN(C(=O)[C@H](NC(=O)c2c[nH]c3ncc(-c4ccc(C(F)(F)F)cc4)nc23)C2CC2)C1` [Example 142, 2-(4-Trifluoromethyl-phenyl)-5H-pyrrolo[2,3-b]pyrazine-7-carboxylic acid [(R)-2-(3-cyano-azetidin-1-yl)-1-cyclopropyl-2-oxo-ethyl]-amide], the melting point lay within 207 to 209 °C.

With `N#CC1CN(C(=O)[C@H](NC(=O)c2c[nH]c3ncc(-c4ccc(N5CCOCC5)cc4)nc23)C2CC2)C1` [Example 145, 2-(4-Morpholin-4-yl-phenyl)-5H-pyrrolo[2,3-b]pyrazine-7-carboxylic acid [(R)-2-(3-cyano-azetidin-1-yl)-1-cyclopropyl-2-oxo-ethyl]-amide], the melting point is 186 to 192 °C.

For the compound `O=C(N[C@@H](C(=O)N1CCCC1)C1CC1)c1c[nH]c2ncc(C3CC3)nc12` [Example 25, 2-Cyclopropyl-5H-pyrrolo[2,3-b]pyrazine-7-carboxylic acid ((R)-1-cyclopropyl-2-oxo-2-pyrrolidin-1-yl-ethyl)-amide], the melting point fell in the range of 254 to 256 °C.

As for `Cc1nc(-c2cnc3[nH]cc(C(=O)N[C@@H](C(=O)N4CC(C#N)C4)C4CC4)c3n2)cn1-c1ccccc1`, the melting point was in the range of 175 to 179 °C.

For `C[C@@H](NC(=O)c1c[nH]c2ncc(-c3cc(OCC4CC4)ccn3)nc12)C(=O)N1CC(C#N)C1` [Example I-131, 2-(4-Cyclopropylmethoxy-pyridin-2-yl)-5H-pyrrolo[2,3-b]pyrazine-7-carboxylic acid [(R)-2-(3-cyano-azetidin-1-yl)-1-methyl-2-oxo-ethyl]-amide], the IC50 in data set [1] is 2.58 nM.

`N#CC1CN(C(=O)[C@H](NC(=O)c2c[nH]c3ncc(N4Cc5c(Cl)cccc5C4=O)nc23)C2CC2)C1` [Example I-95, 2-(4-Chloro-1-oxo-1,3-dihydro-isoindol-2-yl)-5H-pyrrolo[2,3-b]pyrazine-7-carboxylic acid [(R)-2-(3-cyano-azetidin-1-yl)-1-cyclopropyl-2-oxo-ethyl]-amide]: in data set [1], the IC50 stood at 2.73 nM.

Turning to `CCn1cc(-c2cnc3[nH]cc(C(=O)N[C@@H](C(=O)N4CCCC4)C(C)(C)C)c3n2)cn1` [Example I-13, 2-(1-Ethyl-1H-pyrazol-4-yl)-5H-pyrrolo[2,3-b]pyrazine-7-carboxylic acid [(R)-2,2-dimethyl-1-(pyrrolidine-1-carbonyl)-propyl]-amide], the IC50 in data set [1] is 4.53 nM.

Consider `Cn1cc(-c2cnc3[nH]cc(C(=O)N[C@@H](C(=O)N4C[C@@H]5[C@@H](CO)[C@@H]5C4)C4CC4)c3n2)cn1` [Example I-87, 2-(1-Methyl-1H-pyrazol-4-yl)-5H-pyrrolo[2,3-b]pyrazine-7-carboxylic acid [(R)-1-cyclopropyl-2-((1S,5R,6R)-6-hydroxymethyl-3-aza-bicyclo[3.1.0]hex-3-yl)-2-oxo-ethyl]-amide], for which the IC50 in data set [1] was found to be 4.49 nM.

As to `CN(C)c1ccc(-c2cnc3[nH]cc(C(=O)N[C@@H](C(=O)N4CC(C#N)C4)C4CC4)c3n2)cc1` [Example I-164, 2-(4-Dimethylamino-phenyl)-5H-pyrrolo[2,3-b]pyrazine-7-carboxylic acid [(R)-2-(3-cyano-azetidin-1-yl)-1-cyclopropyl-2-oxo-ethyl]-amide], in data set [1], the IC50 is at most 0.32 nM.

As to `C[C@@H](NC(=O)c1c[nH]c2ncc(-c3cccc(N4CCC(C)(C)C4)c3)nc12)C(=O)N1CC(C#N)C1` [Example I-123, 2-[3-(3,3-Dimethyl-pyrrolidin-1-yl)-phenyl]-5H-pyrrolo[2,3-b]pyrazine-7-carboxylic acid [(R)-2-(3-cyano-azetidin-1-yl)-1-methyl-2-oxo-ethyl]-amide], the IC50 in data set [1] came to 0.62 nM.
